Laboratory results: patent US7271158B2, “Treatment of rumen acidosis with α-amylase inhibitors” (Pfizer Inc., priority 2000, dated 2007)

Columns and labels:
[1] = tested on: rumen fluid fermentation (RUSITEC chronic acidosis model); test: RUSITEC rumen simulation, chronic acidosis model: Example 8 and acarbose; type: cell-based, cow
Method: RUSITEC Result using Example 8 and Acarbose
Daily maintenance procedures as previously described for Acarbose.
Rumen fluid donor cow—Fed GH313Pellets plus barley straw.
Daily Feed—30 g GH313 pellets plus 2.5 g chopped barley straw.
Acarbose: 1 tablet added to each bag to give 100 mg/vessel/d
Example 8: Eight×57 mg pre-weighed samples stored in fridge in […]. On the day before the feed bags were to be placed in RUSITEC, a 57 mg sample was dissolved in 2.28 ml buffer (25 mg/ml). 0.21 ml of this solution was added to 1.9 ml buffer to give a 2.5 mg/ml solution. 1 ml of each solution was added to a prepared feed bag to give 25 and 2.5 mg/vessel/d. and dried overnight at room temperature.

[2] = tested on: lactating cows in which chronic acidosis had been induced; test: Efficacy of acarbose in lactating dairy cattle (induced chronic acidosis); type: in vivo, Holstein/Friesian cows
Source text: Efficacy of Acarbose in Lactating Dairy Cattle The study measured the effect of acarbose on rumen pH, milk yield and milk composition in lactating cows in which chronic acidosis had been induced by offering a highly fermentable diet. The study included measurement of rate of adaptation to the introduction and removal of acarbose. Experimental animals were six lactating multiparous Holstein/Friesian cows between 5 and 11 years of age and 500-750 kg, with permanent rumen cannulas. The animals started the experiment in early lactation, but not before peak lactation, to allow greater experimental sensitivity. The principal measurements in this study were pH in the ventral sac of the rumen, milk yield and milk composition. DESIGN: Animals enrolled into the study received test article for 21 consecutive days from the start time points described below. [table] Masking/Bias-Reducing Methods: Six lactating multiparous Holstein/Friesian cows were enrolled on to the study on Day-1. Animals were paired based on their calving date (cows with similar dates paired together). Within each pair, one animal received […] and the other […]. The treatment was assigned at random. […] The mean intake over the last 5 days of the preliminary period was calculated and this mean amount was offered to each animal throughout the trial. […] Fresh weight of TMR offered and refused was recorded daily for each animal. During non-measurement weeks ([…] period and adaptation weeks 1 and 2 in each experimental period), dry matter (DM) of main forage components (grass and maize […] determined approximately weekly (or more frequently if it appears necessary from visual assessment of the silage). For measurement weeks (i.e. week 3 in each experimental period), the DM of the TMR were measured daily for the last 5 days while a bulk of each of the individual TMR components (grass silage, maize silage, concentrate mix, ground wheat) were prepared from the same 5 days for subsequent diet analysis (i.e. one sample of each main feed per period). […]

[3] = target: rumen fluid supernatant amylases; test: Rumen bacterial amylase assay, protocol 1 (Sigma amylase kit 577); type: biochemical, rumen bacteria, Hereford×Friesian calves; conditions: rumen fluid amylase screen using Sigma kit 577
Source text: Rumen Bacterial Amylase Assay—Protocol 1
The enzymatic reactions involved in the assay are as follows:
5 ET-G7PNP→(α-amylase)→2 ET-G5+2 G2PNP+2 ET-G4+2 G3PNP+ET-G3+G4-PNP2 G2PNP+2 G3 PNP→(α-glucosidase)→4 PNP +10 glucose
α-Amylase hydrolyses 4,6-ethylidene-G7-PNP (ET-G7 PNP) to G2, G3 and G4 PNP fragments. α-Glucosidase (α-1,4-glucan glucohydrolase EC 3.2.1.3) hydrolyses G2PNP and G3PNP to yield p-nitrophenol and glucose. Five moles of substrate (ET-G7PNP) is hydrolysed to yield 4 moles of p-nitrophenol p-Nitrophenol absorbs light as 405 nm, and following a two minute lag period the rate of increase in absorbance at 405 nm is directly proportional to α-amylase activity in the well.
Rumen fluid was collected from 4-month-old Hereford×Friesian calves (125–135 kg, supplied by Cwmnant Calves Ltd. Cwmnant. Tregaron. Ceredigion) fed on diet GH 313. The rumen fluid was collected from slaughtered calves into pre-warmed vacuum flasks, as soon as possible after euthanasia. It was then filtered through a double layer of absorbent gauze (Absorbent gauze BP, GAUZ 4 from Robert Bailey plc, Stockport) to remove hay and feed particles. The liquid was centrifuged at a relative centrifugal force of 23,300 for 60 minutes, and the supernatant decanted, avoiding contamination from the loose top layer of the pellet by careful pouring. The supernatant was then aliquoted into 50 ml plastic tubes and frozen at […]. When required for use in an assay the rumen fluid supernatant was thawed by standing the tubes in cold water. Test compounds or controls were dispensed into the 96-well assay plate at 4 μl/well. 100 μl per well of Sigma amylase reagent 577 (made up to half the volume described in the instructions (i.e. 10 ml for a 577-20 vial)) was then added to each well, followed by 100 μl per well of rumen fluid supernatant. A T=0 reading at 405 nm was taken at this stage using an Anthos plate reader. The plate was then incubated at room temperature or 37° C. until an optical density window of approximately 1.000U was seen (typically one hour at 37° C. or three hours at room temperature). A second reading was taken at 405 nm, and the first reading subtracted from it. Active compounds cause a reduction in the optical density readings when compared to the control without the agent being tested.

## CC1OC(OC2C(CO)OC(OC3C(CO)OC(O)C(O)C3O)C(O)C2O)C(O)C(O)C1NC1C=C(CO)C(O)C(O)C1O (stereo not shown) [Acarbose, acarbose]
[1]; 0.2 mM
  increase in mean daily pH: 0.7 units
[1]; 100 mg per vessel per day, treatment period vs control period (no treatment: 1%)
  proportional increase in butyrate production: 113%
[1]; 100 mg per vessel per day, vs preceding control period (no treatment: −11%)
  change in total VFA production: −15%
[2]; treated animals, acarbose 15 g per day (control 32.8 g/L)
  proportion of fat in the milk: 46.1 g/L
[2]; treated animals, acarbose 15 g per day (control average 1033 grams per day)
  milk fat: 1281 grams per day
[2]; treatment periods, acarbose 15 g per day in feed supplement (control periods 4.3 hours)
  average time below pH 5.5 (rumen): 3.4 hours
[3]
  IC50: 2.03 µM
